Assay results from PubChem BioAssay (NCI).
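Exposure lasted 48 hours, with cells grown in 96-well plates and compounds tested at five concentrations. Definition used: TGI = concentration required for complete inhibition of growth.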

Assays:
Test in all cases: NCI tumour cell line growth inhibition, 48 h
BT-549 breast = tested on: BT-549 breast
MDA-N = tested on: MDA-N
MDA-MB-231 breast = tested on: MDA-MB-231 breast
XF 498 CNS = tested on: XF 498 CNS
HOP-18 NSCLC = tested on: HOP-18 NSCLC
LXFL 529 NSCLC = tested on: LXFL 529 NSCLC
P388 leukemia = tested on: P388 leukemia
P388/ADR leukemia = tested on: P388/ADR leukemia
SN12K1 renal = tested on: SN12K1 renal
HS 578T breast = tested on: HS 578T breast
DU-145 prostate = tested on: DU-145 prostate
RXF-631 renal = tested on: RXF-631 renal

SMILES	TGI (MDA-N)	TGI (MDA-MB-231 breast)	TGI (XF 498 CNS)	TGI (HOP-18 NSCLC)	TGI (LXFL 529 NSCLC)	TGI (HS 578T breast)	TGI (DU-145 prostate)	also measured
Cc1ccc(-c2csc(=Nc3c(C)n(C)n(-c4ccccc4)c3=O)n2CCO)cc1	> 100 µM	> 100 µM	–	–	–	–	–	TGI (BT-549 breast): > 100 µM
CCCCN1C(=O)NC(Cc2ccccc2)C1=O (stereo not drawn)	–	–	> 100 µM	> 100 µM	> 100 µM	–	–	–
CCCCCCCCCCCCCCCCOCC(COP(=O)([O-])OCC[N+](C)(C)C)OCCCCCCCCCCCCCCCC (stereo not drawn)	–	–	> 100 µM	> 100 µM	–	–	–	TGI (P388 leukemia): > 100 µM; TGI (P388/ADR leukemia): > 100 µM; TGI (SN12K1 renal): > 100 µM
OCCN(CCO)c1ccc2c(c1)Cc1ccccc1-2	> 100 µM	> 100 µM	–	–	–	> 100 µM	> 100 µM	–
CC(C)(C)C(=O)C(C(c1ccccc1)N1CCOCC1)N1CCOCC1 (stereo not drawn)	> 100 µM	> 100 µM	–	–	–	> 100 µM	> 100 µM	TGI (BT-549 breast): > 100 µM
O=[n+]1c2ccccc2n([O-])c2cc(Br)ccc21	–	> 100 µM	–	–	–	> 100 µM	98.9 µM	–
CCO[C@]12C[C@H](OC)[C@@]3(O)CC(C1[C@H]3O)C13C4C2[C@H](OC)C1[C@](COC)(CN4CC)[C@H](O)C[C@@H]3OC (stereo partly drawn)	–	–	–	–	> 100 µM	–	–	–
CC(C)[C@](O)(C(=O)OCC1CC[N+]2([O-])CC[C@@H](O)C12)[C@H](C)O (stereo partly drawn)	–	–	> 375 µM	> 375 µM	–	–	–	TGI (P388 leukemia): > 375 µM; TGI (P388/ADR leukemia): > 375 µM; TGI (SN12K1 renal): > 375 µM
CC(=O)Oc1ccccc1C(=O)O	> 100 µM	–	–	–	–	–	> 100 µM	TGI (BT-549 breast): > 100 µM
COc1ccc(N2C(=O)C3c4[nH]c5cccc(C)c5c4C4CCC(C(C)(C)C)CC4C3C2=O)cc1 (stereo not drawn)	> 10 µM	> 10 µM	–	–	–	> 10 µM	> 10 µM	–
Clc1c(Cl)c2c(Cl)c(Cl)c1C[P+](c1ccccc1)(c1ccccc1)CC[P+](c1ccccc1)(c1ccccc1)Cc1c(Cl)c(Cl)c(c(Cl)c1Cl)C[P+](c1ccccc1)(c1ccccc1)CC[P+](c1ccccc1)(c1ccccc1)C2	–	–	–	20.6 µM	8.12 µM	–	–	TGI (RXF-631 renal): 23.7 µM
CC#C[I+]c1ccccc1	–	–	33.5 µM	34.4 µM	27.1 µM	–	–	TGI (RXF-631 renal): > 100 µM
